In PubChem BioAssay (NCI):
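Cells were grown in 96-well plates and exposed to each compound for 48 hours at five concentrations; endpoints were interpolated linearly between bracketing concentrations, or set to the highest concentration if not reached. Definition used: TGI = concentration required for complete inhibition of growth.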

Legend:
Experiment in all cases: inhibition of tumour cell growth, NCI panel, 48 h
[1] = tested on: MCF7 breast
[2] = tested on: MOLT-4 leukemia
[3] = tested on: OVCAR-5 ovarian
[4] = tested on: SW-620 colon
[5] = tested on: MDA-MB-231 breast
[6] = tested on: A498 renal
[7] = tested on: SF-295 CNS
[8] = tested on: NCI-H460 lung
[9] = tested on: T-47D breast
[10] = tested on: UACC-257 melanoma
[11] = tested on: SNB-75 CNS
[12] = tested on: HCC-2998 colon

SMILES	TGI [1] [µM]	TGI [2] [µM]	TGI [3] [µM]	TGI [4] [µM]	TGI [5] [µM]	TGI [6] [µM]	TGI [7] [µM]	TGI [8] [µM]	TGI [9] [µM]	TGI [10] [µM]	TGI [11] [µM]	TGI [12] [µM]
COC(=O)[C@@H]1CCCN1CCN1CCC[C@H]1C(=O)OC	> 100	> 100	> 100	> 100	> 100	> 100	> 100	> 100	> 100			
O=C1OC2(OC2c2ccccc2)c2ccccc21 (configuration not stated)		> 100	> 100	> 100				> 100		> 100	> 100	> 100
CC(=O)C1=C(C)NC2C=CC=CN12 (configuration not stated)		> 100	> 100	> 100		> 100	> 100	> 100		> 100	> 100	> 100
O=C(Cc1ccccc1)NN1C(=O)/C(=C\c2cccc(O)c2)SC1=Nc1ccccc1	> 100		> 100	> 100	> 100	> 100	> 100	> 100	> 100	> 100	> 100	> 100
CCCC(C)NC1=C(NC(C)=O)C(=O)c2ccccc2C1=O (configuration not stated)		> 100		> 100			> 100	> 100		> 100	> 100	> 100
O=C(CSc1nnc(Cc2ccccc2)o1)Nc1ccc([N+](=O)[O-])cc1		> 100	> 100			> 100	> 100	> 100		> 100	> 100	> 100
COC(=O)N/N=C(\C)C(CN1CCCCC1)C(C1=C(O)c2ccccc2OC1)c1ccccc1 (configuration not stated)		> 100	> 100	> 100		> 100	> 100	> 100		> 100	> 100	
c1cc2nnnn2nc1N1CCCC1	> 100	> 100	> 100	> 100	> 100	> 100	> 100	> 100		> 100		> 100
O=C1c2ccccc2CCCCCCCCCCC12OCCCO2		43.8	66.8			97.5	> 100	> 100		72.7	> 100	68.2
O=C1c2ccccc2C(=O)N1Cc1ccccc1-c1c2nc(c(-c3ccccc3CN3C(=O)c4ccccc4C3=O)c3ccc([nH]3)c(-c3ccccc3CN3C(=O)c4ccccc4C3=O)c3nc(c(-c4ccccc4CN4C(=O)c5ccccc5C4=O)c4ccc1[nH]4)C=C3)C=C2		> 100	> 100	> 100		> 100	> 100	> 100		> 100	> 100	
Oc1cc(C2OCCCO2)cc(O)c1O		> 100	> 100	> 100		> 100	> 100	> 100		> 100	> 100	> 100
CC(=O)OC1CC2C(C)(C)OC(=O)CC(OC(C)=O)[C@]2(C)C2CCC3(C)C(=CCC3[C@H]3COC(=O)C3)[C@]12C (some centres not stated)		89.5	> 100	> 100		> 100	> 100	> 100			> 100	> 100
O=C1Nc2c(ccc(Cl)c2I)C1=O		40.1	34.3	45.6			36.5	31.8				34.4
O=C(Cc1ccccc1)NN1C(=O)C(Cl)C1c1ccc(O)cc1 (configuration not stated)		> 100	> 100	> 100			> 100	> 100		> 100	> 100	> 100
Cc1ccc2c(c1)[nH]c1cc(C(F)(F)F)ccc1[p+]2=O (configuration not stated)	> 100	52	> 100	> 100	49.1	74.5	81.9	> 100	> 100	66	55.9	> 100
CC(C)C(=O)/C=C/c1ccc(Br)cc1		95.9	27.5	23.1		28	29.9	30.1		30.8	32.8	30.9
CCCCCCCCCCCCCCCCCC(=O)O[C@H](COC(=O)CCCCCCCCCCC)COC(=O)CCCCCCCCCCCCCCC		> 100	> 100	> 100		> 100	> 100	> 100		> 100		> 100
CC(=O)Nc1cc2c(s1)CCC1CC(=O)NN=C21 (configuration not stated)		> 100	> 100	> 100			> 100	> 100			> 100	
COC(=O)C1=C2SCc3cccc(c3)CSC3=C(C(=O)OC)SC(=C(S2)S1)S3	> 100	> 100		> 100	74.9	> 100	> 100	> 100	> 100	> 100	> 100	> 100
